Test results: US20100196283A1, “METHOD AND IMAGING MEDIUM FOR USE IN THE METHOD” (priority 2007, published 2010)

How the values were obtained:
[1] = Liquid state polarisation by liquid state 13C-NMR at 400 MHz; assay type: physicochemical
Experimental: In a similar way, the level of polarisation for dissolved hyperpolarised ^13C-lactate may be determined by liquid state NMR measurements. Again the signal intensity of the dissolved hyperpolarised ^13C-lactate is compared with the signal intensity of the dissolved ^13C-lactate before polarisation. The level of polarisation is then calculated from the ratio of the signal intensities of ^13C-lactate before and after polarisation.
After 60 min dynamic nuclear polarisation, the frozen polarised composition obtained was dissolved in 6 ml phosphate buffer (20 mM, pH 7.4, 100 mg/l EDTA). The pH of the final solution containing the dissolved composition was 7.4±0.1. The sodium ^13C1-L-lactate concentration in said final solution was 60±2 mM.
Liquid state polarisation was determined by liquid state ^13C-NMR at 400 MHz to be 18-20%.
After an overnight dynamic nuclear polarisation, the frozen polarised composition obtained was dissolved in 6 ml phosphate buffer (40 mM, pH 7.3, osmolality match to 200 mM with NaCl, 100 mg/l EDTA, 1 eq. NaOH). The pH of the final solution containing the dissolved composition was 7.1. The D-lactate concentration in said final solution was 40 mM.
(§1) Liquid state polarisation was determined by liquid state ^13C-NMR at 400 MHz to be 14%. The liquid state relaxation (T1 at 9.4 T) was determined to 44 s.

[2] = Liquid state relaxation (T1 at 9.4 T); assay type: physicochemical; details: Example 5b
Experimental: as §1

[3] = T1 relaxation in human full blood at 37° C.; assay type: physicochemical
From the text: The isotopic enrichment of the hyperpolarised ^13C-lactate used in the method of the invention is preferably at least 75%, more preferably at least 80% and especially preferably at least 90%, an isotopic enrichment of over 90% being most preferred. Ideally, the enrichment is 100%. ^13C-lactate used in the method of the invention may be isotopically enriched at the C1-position (in the following denoted ^13C1-lactate), at the C2-position (in the following denoted ^13C2-lactate), at the C3-position (in the following denoted ^13C3-lactate), at the C1- and the C2-position (in the following denoted ^13C1,2-lactate), at the C1- and the C3-position (in the following denoted ^13C1,3-lactate), at the C2- and the C3-position (in the following denoted ^13C2,3-lactate) or at the C1-, C2- and C3-position (in the following denoted ^13C1,2,3-lactate). Isotopic enrichment at the C1-position is the most preferred since ^13C1-lactate has a higher, i.e. longer T1 relaxation in human full blood at 37° C. than ^13C-lactate which is isotopically enriched at other C-positions.

[4] = system: Hep-G2 cells; assay: In vitro 13C-MR spectroscopy in Hep-G2 cells; assay type: in vitro ADME
Experimental: An imaging medium was prepared as described in Example 1 and 25 μl of the imaging medium (2.7 mM sodium ^13C1-lactate) was mixed into 10 M Hep-G2 cells. A dynamic set of ^13C-MR spectra was acquired every 5 s with a 15 degree RF pulse. ^13C1-pyruvate was clearly building up over time. The average conversion was 0.3% with a peak conversion (0.4%) approximately 20 s into the experiment.

[5] = system: mice (heart); assay: In vivo 13C-MR spectroscopy in mice (heart); parameters: species or system C57Bl/6 mouse; details: heart surface coil; 200 μl of about 60 mM imaging medium; 9.4 T
Experimental: 200 μl of an imaging medium which was prepared as described in Example 1 was injected into a C57Bl/6 mouse over a time period of 6 s. The sodium ^13C1-lactate concentration in said imaging medium was about 60 mM and 2 animals were used in the experiment. A surface coil (tuned for proton and carbon) was positioned over the heart of the animal and ^13C-MR spectroscopy was carried out in a 9.4 T magnet. A dynamic set of ^13C-MR spectra (in total 20) was acquired every 5 s with a 30 degree RF pulse. Again a significant amount of metabolism was seen including ^13C1-pyruvate (approximately 2% of the ^13C1-lactate signal), followed by ^13C1-alanine at a later point of time. ^13C1-bicarbonate (approximately 0.5% of the ^13C1-lactate signal) was observable at a similar peak time as ^13C1-pyruvate (FIG. 5).

[6] = system: mice (whole body); assay: In vivo 13C-MR spectroscopy in mice (whole body); parameters: species or system C57Bl/6 mouse
Experimental: 200 μl of an imaging medium which was prepared as described in Example 1 was injected into a C57Bl/6 mouse over a time period of 6 s. The sodium ^13C1-lactate concentration in said imaging medium was 60-90 mM and 3 animals were used in the experiment. A rat size whole body coil (tuned for proton and carbon) was placed over the animal and ^13C-MR spectroscopy was carried out in a 9.4 T magnet. A dynamic set of ^13C-MR spectra (in total 30) was acquired every 3 s with a 15 degree RF pulse. […] The following decay times were calculated from the MR spectra: ^13C1-pyruvate 23 s, ^13C1-alanine 33 s and ^13C1-bicarbonate 24 s.

[7] = system: mice (liver); assay: In vivo 13C-MR spectroscopy in mice (liver); parameters: species or system C57Bl/6 mouse; details: liver surface coil; 200 μl of about 60 mM imaging medium; 9.4 T
Experimental: 200 μl of an imaging medium which was prepared as described in Example 1 was injected into a C57Bl/6 mouse over a time period of 6 s. The sodium ^13C1-lactate concentration in said imaging medium was about 60 mM. A surface coil (tuned for proton and carbon) was positioned over the liver of the animal and ^13C-MR spectroscopy was carried out in a 9.4 T magnet. A dynamic set of ^13C-MR spectra (in total 20) was acquired every 5 s with a 30 degree RF pulse. Again a significant amount of metabolism was seen including ^13C1-pyruvate (approximately 3% of the ^13C1-lactate signal), followed by ^13C1-alanine (approximately 3.5% of the ^13C1-lactate signal) at a later point of time (FIG. 3).

[8] = Solid state polarisation by solid state 13C-NMR after DNP; assay type: physicochemical
From the text: The level of polarisation may for instance be determined by solid state ^13C-NMR measurements in solid hyperpolarised ^13C-lactate, e.g. solid hyperpolarised ^13C-lactate obtained by dynamic nuclear polarisation (DNP) of ^13C-lactate. The solid state ^13C-NMR measurement preferably consists of a simple pulse-acquire NMR sequence using a low flip angle. The signal intensity of the hyperpolarised ^13C-lactate in the NMR spectrum is compared with signal intensity of ^13C-lactate in a NMR spectrum acquired before the polarisation process. The level of polarisation is then calculated from the ratio of the signal intensities before and after polarisation.
The probe is inserted into the probe-retaining container, submerged in the liquid helium and irradiated with microwaves. The microwave frequency may be determined from the EPR line of the DNP agent, which depends on the magnetic field of the magnet as 28.0 GHz/T. The optimal microwave frequency may be determined by adjusting the frequency for maximal NMR signal. Preferably, the optimal microwave frequency is in the about 94 GHz for a magnet charged to 3.35 T, 110 GHz for a magnet charged to 4 T, 140 GHz for a magnet charged to 5 T and 200 GHz for a magnet charged to 7 T. The power may be chosen between 50 and 200 mW, dependent on the probe size. The level of polarisation may be monitored as earlier described by for instance acquiring solid state ^13C-NMR signals of the probe during microwave irradiation. Generally, a saturation curve is obtained in a graph showing NMR signal vs. time. […] A solid state ^13C-NMR measurement suitably consists of a simple pulse-acquire NMR sequence using a low flip angle. […] The polarisation is then calculated from the ratio of the signal intensities before and after DNP.
To a micro test tube was added sodium ^13C1-L-lactate solution (78.5 mg, Aldrich, 50% w/w sodium ^13C1-lactate). […] Polarisation was followed by solid state ^13C-NMR and the solid state polarisation was determined to be 20%.

[9] = 200 μl of 60-90 mM imaging medium injected over 6 s, 9.4 T

**Q.** With `C[C@@H](O)C(=O)O` [D-lactate] as the molecule, how does the liquid state polarisation ([1]; Example 5b, overnight DNP of D-lactic acid, dissolved in phosphate buffer with 1 eq. NaOH, 13C-NMR at 400 MHz) read?
**A.** 14%

**Q.** And the “liquid state relaxation (T1)” value [2]?
**A.** 44 s

**Q.** For `C[C@H](O)[13C](=O)O` [^13C1-lactate], which “T1 relaxation versus 13C-lactate enriched at other C-positions” value [3] is on record?
**A.** longer

**Q.** For `C[C@H](O)[13C](=O)[O-].[Na+]` [sodium ^13C1-L-lactate], which “peak conversion to 13C1-pyruvate” value ([4]; 25 μl imaging medium (2.7 mM sodium 13C1-lactate) mixed into 10 M Hep-G2 cells) is on record?
**A.** 0.4%

**Q.** And the “average conversion to 13C1-pyruvate” value ([4]; 25 μl imaging medium (2.7 mM sodium 13C1-lactate) mixed into 10 M Hep-G2 cells, spectra every 5 s)?
**A.** 0.3%

**Q.** And the “time of peak conversion to 13C1-pyruvate” value ([4]; Hep-G2 cells, time into the experiment)?
**A.** approximately 20 s

**Q.** And the “13C1-bicarbonate signal as % of the 13C1-lactate signal” value [5]?
**A.** approximately 0.5%

**Q.** And the “13C1-pyruvate signal as % of the 13C1-lactate signal” value (shortened to “13C1-pyruvate signal as %”) [5]?
**A.** approximately 2%

**Q.** What about the “13C1-alanine signal as % of the 13C1-lactate signal” value [6, 9] of the same molecule?
**A.** approximately 1.5%

**Q.** And the “13C1-bicarbonate signal as % of the 13C1-lactate signal” value [6, 9]?
**A.** approximately 0.5%

**Q.** And the “13C1-pyruvate signal as %” value [6, 9]?
**A.** approximately 2%

**Q.** What about the “decay time of 13C1-alanine signal” value ([6]; calculated from the MR spectra) of the same molecule?
**A.** 33 s

**Q.** And the “decay time of 13C1-bicarbonate signal” value ([6]; calculated from the MR spectra)?
**A.** 24 s

**Q.** What about the “decay time of 13C1-pyruvate signal” value ([6]; calculated from the MR spectra) of the same molecule?
**A.** 23 s

**Q.** And the liquid state polarisation ([1]; Example 1b, after 60 min DNP, dissolved in 6 ml phosphate buffer pH 7.4, 13C-NMR at 400 MHz)?
**A.** 18-20%

**Q.** What about the liquid state polarisation ([1]; Example 2, water/glycerol mixture (75:25), dissolved as in Example 1b) of the same molecule?
**A.** 15-20%

**Q.** And the liquid state polarisation ([1]; Example 3, water/glycerol mixture (50:50), dissolved as in Example 1b)?
**A.** 25%

**Q.** And the “13C1-alanine signal as % of the 13C1-lactate signal” value [7]?
**A.** approximately 3.5%

**Q.** And the 13C1-bicarbonate levels observed [7]?
**A.** very low levels

**Q.** And the “13C1-pyruvate signal as %” value [7]?
**A.** approximately 3%

**Q.** What about the solid state polarisation ([8]; Example 1a, aqueous trityl radical and Gd-chelate solutions, DNP at 1.2 K, 3.35 T, 94 GHz) of the same molecule?
**A.** 20%

**Q.** And the solid state polarisation ([8]; Example 2, water/glycerol mixture (75:25) for trityl and Gd-chelate solutions)?
**A.** 17-20%

**Q.** And the solid state polarisation ([8]; Example 3, water/glycerol mixture (50:50) for trityl and Gd-chelate solutions)?
**A.** 25%
